{
  "source": "patent US20140343014A1",
  "about": "“COMBINATION OF A CERTAIN DPP-4 INHIBITOR AND VOGLIBOSE” (BOEHRINGER INGELHEIM INTERNATIONAL GMBH, priority 2013, published 2014)",
  "experiment": "Pharmacokinetics of BI 1356 in patients with type 2 diabetes, multiple oral doses once daily for 12 days",
  "conditions": "therapeutic oral dose levels; listed as BI 1356",
  "note": "Entries after “also recorded” stand apart in the source; their conditions may differ.",
  "data": [
    {"smiles": "CC#CCn1c(N2CCC[C@@H](N)C2)nc2c1c(=O)n(Cc1nc(C)c3ccccc3n1)c(=O)n2C", "note": "[linagliptin]", "values": [
      {"measurement": "route of excretion", "result": "mainly excreted via the liver; also recorded: primarily excreted unchanged via the bile"}
    ]}
  ]
}
